According to patent publication US20250009819A1, “NOVEL PROBIOTICS AND USE THEREOF” (PBLBIOLAB CO., LTD., priority 2021, published 2025):

How the values were obtained:
[1] = tested on: IL-10; test: IL-10 expression in LPS-treated macrophages (ELISA); format: cell-based, C57BL/6 mice; conditions: macrophages treated with lactic acid bacteria and LPS for 24 hours
Outline: (§1)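 Peritoneal macrophages were elicited in male C57BL/6 mice (6 weeks) by i.p. 4% thioglycolate and harvested 96 h later. Cells at 0.5×10^6/well were treated with lactic acid bacteria plus LPS for 24 h. Cytokines in the supernatant were quantified by ELISA.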

[2] = tested on: TNF-α; test: TNF-α expression in LPS-treated macrophages (ELISA); format: cell-based, C57BL/6 mice; conditions: macrophages treated with lactic acid bacteria and LPS for 24 hours
Outline: as §1

[3] = Antioxidant activity (DPPH, in vitro); format: biochemical; conditions: DPPH 0.2 mM; lactic acid bacteria suspension 1×10^8 CFU/ml; 37° C. 20 min
Outline: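 Lactic acid bacteria suspension (1×10^8 CFU/ml) or vitamin C (1 g/ml) was mixed with 0.2 mM ethanolic DPPH and incubated 20 min at 37° C. After centrifugation, supernatant absorbance at 517 nm gave the antioxidant activity.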

[4] = tested on: gut microbiota; test: LPS production in gut microbiota (ELISA); format: cell-based; conditions: human feces culture; lactic acid bacteria 1×10^6 CFU/mL; anaerobic 24 hr
Procedure: Fresh human feces were suspended in anaerobic medium (GAM, Nissui Pharmaceutical Co., Ltd., Japan) and allowed to stand for 10 min. The supernatant was diluted with 10,000-fold anaerobic medium, 0.05 mL of the dilution was transplanted into 5 mL of freshly made anaerobic medium, and lactic acid bacteria (1×10^6 CFU/mL) were implanted and incubated anaerobically for 24 hr.

[5] = tested on: Clostridium difficile; test: Clostridium difficile proliferation in gut microbiota (PCR); format: cell-based; conditions: human feces culture; lactic acid bacteria 1×10^6 CFU/mL; anaerobic 24 hr
Outline: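 Human fecal supernatant, diluted 10,000-fold in GAM, co-cultured anaerobically 24 h with lactic acid bacteria (1×10^6 CFU/mL). C. difficile quantified by PCR on pellet DNA (95 °C 30 s; 42 cycles 95 °C 5 s/72 °C 30 s); supernatant LPS measured by ELISA.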

[6] = tested on: BDNF; test: BDNF expression in SH-SY5Y cells; format: cell-based; conditions: LPS 200 ng/ml; lactic acid bacteria 1×10^4 CFU/ml; 24 h
Procedure: SH-SY5Y cells obtained from the Korean Cell Line Bank were cultured in DMEM medium supplemented with 10% FBS and 1% antibiotics, and dispensed at 2×10^6 cells per well in a 12-well plate. Then, LPS (200 ng/ml) was added to each well along with lactic acid bacteria (1×10^4 CFU/ml) and incubated for 24 h. The cells and supernatants were collected, sonicated and centrifuged, and the amount of BDNF in the supernatant was measured by ELISA kit.

[7] = tested on: Neuropeptide Y (NPY); test: Neuropeptide Y (NPY) expression in PC12 phaeochromocytoma cells; format: cell-based; conditions: LPS 200 ng/ml; lactic acid bacteria 1×10^4 CFU/ml; 24 hr
Procedure: PC12 cells obtained from the Korean Cell Line Bank were cultured in DMEM medium supplemented with 10% FBS and 1% antibiotics, and dispensed at 1×10^6 cells per well in a 12-well plate. Then, LPS (200 ng/ml) was added to each well along with lactic acid bacteria (1×10^4 CFU/ml) and incubated for 24 hr. The cells and supernatants were collected, sonicated and centrifuged, and the amount of NPY in the supernatant was measured by ELISA kit.

Substance | Macrophage Induction of IL-10 expression [1] | Macrophage Inhibition of TNF-α expression [2] | Antioxidant activity [3] | Gut microbiota Inhibition of LPS production [4] | Gut microbiota Inhibition of difficile bacteria proliferation [5] | SHSY5Y cell Induction of BDNF expression [6] | PC12 cell Induction of NPY expression [7]
Bifidobacterium adolescentis NK220 | + (weakly (+; >20-60%)) | + (weakly (+; >20-60%)) | + (weakly (+; >20-60%)) | − (not or less than 20% (−; <20%)) | + (weakly (+; >20-60%)) | + (weakly (+; >20-60%)) | − (not or less than 20% (−; <20%))
Bifidobacterium infantis NK214 | − (not or less than 20% (−; <20%)) | − (not or less than 20% (−; <20%)) | ++ (strongly (++; >60-90%)) | + (weakly (+; >20-60%)) | + (weakly (+; >20-60%)) | − (not or less than 20% (−; <20%)) | + (weakly (+; >20-60%))
Bifidobacterium bifidum NK224 | − (not or less than 20% (−; <20%)) | − (not or less than 20% (−; <20%)) | + (weakly (+; >20-60%)) | + (weakly (+; >20-60%)) | + (weakly (+; >20-60%)) | − (not or less than 20% (−; <20%)) | + (weakly (+; >20-60%))
Bifidobacterium pseudocatenulatum NK228 | − (not or less than 20% (−; <20%)) | − (not or less than 20% (−; <20%)) | + (weakly (+; >20-60%)) | ++ (strongly (++; >60-90%)) | − (not or less than 20% (−; <20%)) | + (weakly (+; >20-60%)) | + (weakly (+; >20-60%))
Lactobacillus mucosae NK204 | − (not or less than 20% (−; <20%)) | − (not or less than 20% (−; <20%)) | + (weakly (+; >20-60%)) | − (not or less than 20% (−; <20%)) | + (weakly (+; >20-60%)) | − (not or less than 20% (−; <20%)) | − (not or less than 20% (−; <20%))
Bifidobacterium infantis NK213 | + (weakly (+; >20-60%)) | + (weakly (+; >20-60%)) | + (weakly (+; >20-60%)) | − (not or less than 20% (−; <20%)) | + (weakly (+; >20-60%)) | − (not or less than 20% (−; <20%)) | − (not or less than 20% (−; <20%))
Bifidobacterium longum NK216 | − (not or less than 20% (−; <20%)) | − (not or less than 20% (−; <20%)) | ++ (strongly (++; >60-90%)) | ++ (strongly (++; >60-90%)) | − (not or less than 20% (−; <20%)) | − (not or less than 20% (−; <20%)) | + (weakly (+; >20-60%))
Bifidobacterium longum NK218 | − (not or less than 20% (−; <20%)) | − (not or less than 20% (−; <20%)) | + (weakly (+; >20-60%)) | + (weakly (+; >20-60%)) | + (weakly (+; >20-60%)) | + (weakly (+; >20-60%)) | + (weakly (+; >20-60%))
Bifidobacterium catenulatum NK226 | − (not or less than 20% (−; <20%)) | − (not or less than 20% (−; <20%)) | + (weakly (+; >20-60%)) | − (not or less than 20% (−; <20%)) | + (weakly (+; >20-60%)) | + (weakly (+; >20-60%)) | − (not or less than 20% (−; <20%))
Lactobacillus plantarum NK184 | + (weakly (+; >20-60%)) | + (weakly (+; >20-60%)) | ++ (strongly (++; >60-90%)) | + (weakly (+; >20-60%)) | + (weakly (+; >20-60%)) | − (not or less than 20% (−; <20%)) | − (not or less than 20% (−; <20%))
Lactobacillus reuteri NK200 | − (not or less than 20% (−; <20%)) | − (not or less than 20% (−; <20%)) | + (weakly (+; >20-60%)) | + (weakly (+; >20-60%)) | + (weakly (+; >20-60%)) | + (weakly (+; >20-60%)) | + (weakly (+; >20-60%))
Lactobacillus johnsonii NK203 | + (weakly (+; >20-60%)) | + (weakly (+; >20-60%)) | + (weakly (+; >20-60%)) | − (not or less than 20% (−; <20%)) | − (not or less than 20% (−; <20%)) | − (not or less than 20% (−; <20%)) | − (not or less than 20% (−; <20%))
Lactobacillus mucosae NK205 | − (not or less than 20% (−; <20%)) | − (not or less than 20% (−; <20%)) | + (weakly (+; >20-60%)) | − (not or less than 20% (−; <20%)) | − (not or less than 20% (−; <20%)) | − (not or less than 20% (−; <20%)) | + (weakly (+; >20-60%))
Bifidobacterium adolescentis NK222 | + (weakly (+; >20-60%)) | + (weakly (+; >20-60%)) | + (weakly (+; >20-60%)) | + (weakly (+; >20-60%)) | + (weakly (+; >20-60%)) | − (not or less than 20% (−; <20%)) | + (weakly (+; >20-60%))
